{"source": "patent US20070172521A1", "about": "“Levetiracetam formulations and methods for their manufacture” (priority 2006, published 2007)", "assay": "Particle size of the levetiracetam used", "type": "physicochemical", "settings": "levetiracetam used in the examples", "experimental": "In order to avoid possible handling difficulties, the levetiracetam used preferably comprises particles having a particle size distribution such that d(0.1) is Not Less Than (NLT) about 0.6 μm, d(0.5) is from about 10 to about 30 μm, and d(0.9) is Not More Than (NMT) about 65 μm. In addition, the Bulk Density is NLT 0.2 g/cm^3, and the Tapped Density is NLT 0.35 g/cm^3. […] To minimize the impact of particle size on the levetiracetam release rate, a disintegrant was added intra- and extra-granularly. Although the resulting dissolution rate is somewhat slower than that of the commercial product, the product of present invention is found to be bio-equivalent to the marketed product in both fasting and food bio-equivalent studies."}
{"smiles": "CC[C@@H](C(N)=O)N1CCCC1=O", "note": "[levetiracetam, (−)-(S)-(alpha)-ethyl-2-oxo-1-pyrrolidine acetamide]", "values": [{"measurement": "Particle size", "result": "about 50 μm"}]}
